PMC8132061, “An Insulin‐Inspired Supramolecular Hydrogel for Prevention of Type 1 Diabetes” (Advanced Science, 2021)
Non-standard residues stand in square brackets, D forms with d. Residues, ends and D or L forms follow the SMILES beside them. *: point of attachment. Acetyl(2-naphthyl) = O=C(Cc1ccc2ccccc2c1)*

Columns and labels:
[1] = molecular target: human insulin receptor protein (Homo sapiens, UniProt P06213); experiment: Microscale thermophoresis (MST) binding to insulin receptor; settings: Monolith NT.115, Recombinant Human Insulin R/CD220 (aa 28-944), 37 °C, read-out: dissociation constant (K D) to human insulin receptor protein
Experimental: 2‐Cl‐trityl chloride resin (1.1 mmol g^−1) was obtained from Nankai University resin Co., Ltd. Fmoc‐amino acids and o‐benzotriazol‐1‐yl‐N,N,N′,N′‐tetramethyluronium hexafluorophosphate (HBTU) were acquired from GL Biochem (Shanghai). Hydogels were prepared and respective endotoxin levels of formula were tested as previously reported.^[ ^23 , ^24 ^] Ins2_9‐23 peptide (SHLVEALYLVCGERGR; endotoxins <1 EU mg^−1) was supplied by Bankpeptide (Hefei, China). The BD Pharmingen FoxP3 staining kit was from (BD Biosciences, Beijing, China). Aluminum hydroxide was purchased from Sigma‐Aldrich (Shanghai, China). Antibodies used for flow cytometry analysis were purchased from eBioscience (CA, USA) and antibodies used for immunofluorescence staining were obtained from Abcam (Shanghai, China). Cytokine chip microarray was performed by Beijing Genomics Institute (Beijing, China). Recombinant Human Insulin R/CD220 (aa 28‐944) Protein was ordered from R&D Systems (Shanghai, China). Mouse Insulin EZRMI‐13 ELISA kit was from Millipore (Merck, UK). […]
All peptides in the study were synthesized by standard solid‐phase peptide synthesis (SPPS), and purified by high performance liquid chromatography (HPLC). […] CD spectrum were measured by a BioLogic (MOS‐450) system. […] The release behaviors of peptides was analyzed by liquid chromatograph (LC2020). […]

[2] = In vivo retention of Cy5.5-labeled hydrogel/formula (fluorescence imaging); settings: 50 µL subcutaneous inguinal, 8-weeks old female NOD mice, imaged every 6 h at 640 nm excitation
Experimental: 8‐weeks old female NOD mice were subcutaneously injected with a volume of 50 µL Cy5.5‐labeled peptide hydrogels/formulas in inguinal region. In vivo peptide retention was observed every 6 h at 640 nm excitation wavelength via Cri Maestro In‐vivo imaging System (Xenogen, IVIS Lumina II).

[3] = system: OVA-induced immune responses; settings: ref 16a; cited from earlier work
Description: Poor tolerance induction was also observed from the Nap‐GFFY group (Figure 2A, red dotted line; 60% T1D onset). […] In the present study, when both isoforms of Nap‐GFFY were used, the lack of stability and adjuvant potency of L‐GFFY resulted both in reduced antigenic and adjuvant impact, rendering the Nap‐GFFY formulation less eff ... || Supramolecular peptide hydrogel has, in the past 5 years, been extensively investigated as immune adjuvant to improve efficacy of antigen presentation. By using peptide hydrogel, which functions both as antigen depot and immune adjuvant, it eliminates the likely protein‐induced hypersensitivity in vivo and the need for additional adjuvant^[ ^15 , ^37 ^] […] Because the peptide sequence GFFY is conserved in multiple self‐antigens of autoimmune diabetes, we now have assessed its poten ...

pancreatic islets = experiment: Immunofluorescence of pancreatic islets (morphology, immune cell infiltration), prevention study; format: in vivo, NOD mice
Experimental: Female NOD mice (3 weeks of age) were immunized subcutaneously under the front left leg with Nap‐G^dF^dF^dY, Nap‐GFFY, Nap‐G^dF^dA^dY, Nap‐^dF^dF, Ac‐G^dF^dF^dY (1 mg mL^−1, 50–70 µL), and Alum+Ins2_9‐23 (50 µg) and endotoxin‐free PBS once a week for 5 consecutive weeks (from 3‐weeks old to 7‐weeks old) and maintained in specific pathogen free facilities for up to 36 or 52 weeks (n = 3–10 per group). Random plasma glucose level and body weight of all mice were noted weekly from week 8 till the end of experiment with an OneTouch Ultra blood glucose meter (Lifescan Inc., Milpitas, CA, USA). Mice were classified as diabetic if random plasma glucose level exceeded 11.1 mmol L^−1 for 3 consecutive weeks. IPGTT was performed in all treatment groups at week 14, week 20, and week 36. Serum samples were obtained from all mice at the age of week 14, week 20, and week 36 for cytokine chip microarray, which was performed by the Beijing Genomics Institute. Serum insulin level was determined in 10 µL serum samples of each animal using a mouse insulin ELISA kit according to the manufacture's instruction.
Immunofluorescence staining was performed following procedures that were previously detailed.^[ ^18b,c ^] Pancreas were extracted and paraffin‐embedded before being sectioned (5 µm width) onto microscopic slides. For immunofluorescence staining, antigen retrieval was performed followed by exposure to primary antibodies at 4 ℃ overnight. The pancreas sections were then washed with PBS and staining with secondary antibody for 1–2 h at room temperature and examined under a fluorescence microscope (Olympus BX3‐25ND25, Japan).

[4] = system: bone marrow derived dendritic cells (BMDCs); set-up: method as in PMID 31244959; settings: ref 16b; cited from earlier work
[5] = Gelation test and TEM of hydrogels/formulas; format: physicochemical; settings: after heating-cooling
Description: We first tested the gelation properties of Nap‐G^dF^dF^dY and controlled peptides (Nap‐GFFY, Nap‐^dF^dF, Nap‐G^dF^dA^dY, and Ac‐G^dF^dF^dY). […] The nanostructures of these hydrogels and solutions were subsequently observed by transmission electron microscopy (TEM). […] The diameter of its nanofiber was about 12 nm. […] Insulin mimicking requires a specific conformation of the self‐assembled peptide Nap‐G^dF^dF^dY for in vivo performance, indicating a secondary structure examination is required. We obtained the circular dichroism (CD) spectrum of peptide within the hydrogel at 37 °C.
(§1) All peptides in the study were synthesized by standard solid‐phase peptide synthesis (SPPS), and purified by high performance liquid chromatography (HPLC). Hydrogels/formulas were prepared by heating–cooling method. Negative staining technique was used to observe the nanostructures of materials by using TEM (HITACHI HT7700 Exalens). CD spectrum were measured by a BioLogic (MOS‐450) system. Rheology test was carried out on an AR 2000ex system (TA instrument). The release behaviors of peptides was analyzed by liquid chromatograph (LC2020). Microscale thermophoresis and analysis of binding force was performed by using the Monolith NT.115 system (NanoTemper Technologies, Germany). All samples were tested at the temperature of 37 °C.

[6] = Peptide release from hydrogel/solution; format: physicochemical; settings: within 12 h, 37 °C, LC (LC2020)
Experimental: as §1

T1D onset in NOD mice = experiment: T1D prevention study, incidence of T1D onset; format: in vivo, female NOD mice; settings: 1 mg mL^-1, 50-70 µL s.c. once a week for 5 weeks from 3 weeks of age
Experimental: Female NOD mice were inoculated with different hydrogel formulations 3 weeks of age. PBS and aluminum hydroxide+Ins2_9‐23 (Alum+Ins2_9‐23) were used as negative and positive controls, respectively. Random blood glucose (RBG) levels were measured weekly and mice with RBG levels above 11.1 mmol L^−1 for more than 3 consecutive weeks were considered “diabetic” in the present study.

Which Kd [1] does the source give for `O=C(Cc1ccc2ccccc2c1)NCC(=O)N[C@H](Cc1ccccc1)C(=O)N[C@H](Cc1ccccc1)C(=O)N[C@H](Cc1ccc(O)cc1)C(=O)O` [Nap‐G^dF^dF^dY] ({Acetyl(2-naphthyl)}-G[dF][dF][dY]-OH) here?
Its Kd is 53.9 µM.

And the “in vivo retention time (fluorescence signal)” value (“in vivo retention time” for short) [2]?
The value was “about 36 h”.

What about the “in vivo stability vs L-isoform Nap-GFFY” value [3] of the same compound?
Its value is “preferentially more stable in vivo”.

For `O=C(Cc1ccc2ccccc2c1)N[C@H](Cc1ccccc1)C(=O)N[C@H](Cc1ccccc1)C(=O)O` [Nap‐^dF^dF], which “in vivo retention time” value [2] is on record?
The value was “about 30 h”.

Which “in vivo retention time” value [2] does the source give for Nap‐GFFY here?
Its value is “about 30 h”.

What about the “islet immune cell infiltration” value (pancreatic islets; immunofluorescence, prevention study) of the same compound?
Its value is “substantial immune cell infiltration”.

What about the “immune cell infiltration per islet over Nap-G^dF^dF^dY” value (pancreatic islets; over Nap-G^dF^dF^dY, p < 0.01) of the same compound?
Its value is 248 ± 25 % over Nap-GdFdFdY.

And the “average % of immune cell infiltration per islet” value (pancreatic islets; per islet, mean ± s.e.m., n = 5-20)?
The value was 38.5 ± 3.8 % per islet.

And the “CD40/CD80 expression on BMDCs” value [4]?
Its value is “significant increase expression of CD40/CD80”.

And the “TNF-α in cell culture supernatant of BMDCs” value [4]?
The value was “elevated”.

And the gelation property [5]?
Its gelation property is “could swiftly form transparent hydrogels”.

And the “peptide released from gel” value [6]?
The value was “about 40%”.

And the T1D onset (T1D onset in NOD mice)?
Its T1D onset is 60%.
